# Reference: patent US5932559A, “Treatment of hyperandrogenic conditions” (Merck & Co., Inc., priority 1996, dated 1999)
# Key:
# type 2 5α-reductase [1] = molecular target: T1, type 2 5α-reductase (Homo sapiens, UniProt P31213); assay: Progress curves of DHT formation, time course of inhibition of baculovirus expressed type 2 5α-reductase; assay type: biochemical; details: 20 nM inhibitor, pH 7.2, 37° C.
# T1 construct: made in house
# T1 sequence (P31213 1-254): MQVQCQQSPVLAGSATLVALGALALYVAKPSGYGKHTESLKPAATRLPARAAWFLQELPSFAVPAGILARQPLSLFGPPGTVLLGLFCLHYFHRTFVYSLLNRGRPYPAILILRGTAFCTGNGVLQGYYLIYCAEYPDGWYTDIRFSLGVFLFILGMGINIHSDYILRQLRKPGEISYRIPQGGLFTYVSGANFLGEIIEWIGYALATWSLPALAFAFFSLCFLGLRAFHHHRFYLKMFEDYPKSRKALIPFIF
# Protocol: Ethanol is included at 1% final concentration as the vehicle for introduction of inhibitors. The rate of production of [^3 H]dihydrotestosterone is approximately constant for up to 2 hours or 10% consumption of substrate. A unit of enzyme activity was defined as 1 pmol product/min, and is equal to 444 fmol enzyme under these conditions.
# After quenching the reactions with an equal volume, or more, of water containing 1% trifluoroacetic acid, the [^3 H]dihydrotestosterone is isolated by direct injection onto a reverse phase C-18 column (Vydac 4.6×250 mm, 300 Å, 5 micron), which is run in an isocratic system of 40% water (containing 0.1% trifluoroacetic acid) and 60% methanol at 1 mL/min. […] The effluent containing the [^3 H]dihydrotestosterone peak (6 mL) is collected in a liquid scintillation vial and counted with AQUASOL 2 (14 mL, New England Nuclear) with an efficiency of 0.309. […]
# The native human enzyme was from prostate (type 2) or scalp (type 1) tissue, and the recombinant human enzymes were produced by the baculovirus expression system of Anderson, et al. (Chan, H K, Geissler, W M, Anderson, S, Sex Hormones and Antihormones in Endocrine Dependent Pathology: Basic and Clinical Aspects, M. Motta and M. Serio, eds., Elsevier Science 1994). […] Enzyme concentrations were determined by titration with finasteride, or [^3 H]finasteridem, or from catalytic activity using kcat and Km values. […]
# type 2 5α-reductase [2] = molecular target: T1, type 2 5α-reductase; assay: Kinetic constants of baculovirus-expressed type 2 5α-reductase under the standard assay conditions; assay type: biochemical
# Excerpt: Ethanol is included at 1% final concentration as the vehicle for introduction of inhibitors. […] A unit of enzyme activity was defined as 1 pmol product/min, and is equal to 444 fmol enzyme under these conditions.
# When tissue extracts are the source of enzyme, the quenched reactions are clarified by centrifugation at 10,000×g before analysis.
# The molecular weight was taken to be about 30,000 in estimating enzyme purity.
# [3] = test system: native human prostate enzyme; details: read-out: Km (Faller et al.), neutral pH; cited from earlier work
# [4] = test system: human skin (type 1) isozyme; details: cited from earlier work
# [5] = test system: human prostate (type 2) isozyme; details: cited from earlier work
# dihydrotestosterone = details: after withdrawal of finasteride; cited from earlier work
smiles,measurement,setting,value
"CCN(CC)C(=O)[C@H]1CC[C@H]2[C@@H]3CC[C@H]4OC(=O)C=C[C@]4(C)[C@H]3CC[C@]12C [L-682,299, 17β-(N-diethyl)carbamoyl-4-oxa-5α-androst-1-en-3-one]",velocity at infinite-time,type 2 5α-reductase [1],essentially zero
same,inhibition of the enzyme at infinite time,type 2 5α-reductase [1]; inhibition developed slowly with time,total inhibition
C[C@]12CC[C@H]3[C@@H](CCC4=CC(=O)CC[C@@]43C)[C@@H]1CC[C@@H]2O [testosterone],Km,"type 2 5α-reductase [2]; baculovirus-expressed type 2, pH 7.2, 37° C., read-out: Km for testosterone",0.0246 ± 0.0007 µM
same,turnover number kcat,"type 2 5α-reductase [2]; type 2, pH 7.2, 37° C., by titration with finasteride",0.075 ± 0.006 s⁻¹
same,Km,[3],0.02 ± 0.003 µM
"CC(C)(C)NC(=O)[C@H]1CC[C@H]2[C@@H]3CC[C@H]4NC(=O)C=C[C@]4(C)[C@H]3CC[C@]12C [finasteride, 17β-(N-tert-butylcarbamoyl)-3-oxo-4-aza-5α-androst-1-ene-3-one]","inhibition of human skin (type 1) isozyme at clinical doses, in words",[4]; at doses employed in the treatment of BPH,not a significant inhibitor
same,"sensitivity of type 1 isozyme, in words",[4]; sebaceous glands of most regions of skin tissue,relatively insensitive
same,type 1 rate constant as percent of the rate constant against the prostate isozyme,[4]; type 1 vs type 2,about 1%
same,rate constant of binding to the human prostate isozyme,"[5]; Faller et al., slow-binding",270000 M⁻¹ s⁻¹
same,"inhibition type, human prostate (type 2) isozyme",[5]; Harris et al.,slow-binding inhibitors
same,"inhibition of type 2 isozyme, in words",[5]; predominates in the prostate,potently inhibited
same,time required for dihydrotestosterone to return to basal levels after withdrawal,dihydrotestosterone,as long as two weeks
